{
  "source": "patent US10112933B2",
  "about": "“Methods and compositions for treatment of fibrosis” (Baylor College of Medicine, priority 2013, dated 2018)",
  "system": "breast cancer cell lines (MDA-MB-468, MDA-MB-231, MBA-MD-435, MCF7, MDA-MB-453)",
  "test": "Breast cancer cell line apoptosis assay (nucleosome ELISA)",
  "assay_type": "cell-based, human",
  "procedure": "Breast cancer cell line apoptosis assay. Human breast carcinoma cell lines MDA-MB-468, MDA-MB-231, MBA-MD-435 and MCF7 were kindly provided by Dr. Powel H. Brown (Breast Cancer Center, Baylor College of Medicine). Breast cancer cell line, MDA-MB-453 was kindly provided by Dr. Shou Jiang (Breast Cancer Center, Baylor College of Medicine). All cell lines were grown in DMEM medium supplemented with 10% fetal bovine serum (FBS), 25,000 units penicillin G, 25,000 ug streptomycin, and 131.4 mg L-Glutamine and cultured in the incubator under the condition of 95% air, 5% CO2 at 37° C. (Garcia et al., 2001). Cells were seeded at 2,500 cells/cm^2 into 12-well plates. At 80% confluency, cells were washed with PBS and supplemented with fresh medium containing compound or the topoisomerase I-inhibitor, camptothecin, at 0, 0.1, 03, 1, 3, 10, 30, 100, 300 μM. At 24 hours, treatment was terminated by removing the medium from each well. Cells were lysed with cell lysis buffer ([…] for 30 minutes at 25° C.). Cell lysate (200 μl) was centrifuged at 200×g for 10 minutes and […] of each supernatant was assayed for nucleosomes using the Cell Death Detection ELISA (Roche Applied Science) as described by the manufacturer. The percent maximum nucleosome level was calculated by dividing the nucleosome level by the maximum nucleosome level achieved in the assay and multiplying by 100. This value was plotted as a function of the log compound concentration and the best-fitting curve generated using 4-Parameter Logistic Model/Dose Response/XLfit 4.2, IDBS software.",
  "data": [
    {"smiles": "O=C(O)c1ccc(C=CC(=O)c2ccc3c(c2)OCCO3)cc1", "note": "[Cpd3, 4-[3-(2,3-dihydro-1,4-benzodioxin-6-yl)-3-oxo-1-propen-1-yl]benzoic acid]", "values": [
      {"measurement": "apoptosis of breast cancer cell lines with constitutive Stat3 activation", "result": "induced apoptosis preferentially"}
    ]}
  ]
}
